Reference: US20250320206A1, “STAT6 DEGRADERS” (Gilead Sciences, Inc., priority 2024, published 2025)

What was measured:
STAT6 = target: T1, STAT6 (Homo sapiens, UniProt P42226); experiment: Stat6 Degrader Assay (HiBiT based, HeLa LgBiT clone 4.14); assay type: cell-based; conditions: HeLa LgBiT clone 4.14 HiBiT-STAT6, 4-24 h incubation; values given for compounds with >80% Emax; geometric mean; read-out: STAT6 degradation DC50
T1 construct: These cells express endogenous STAT6; host or cells: HeLa LgBiT clone 4.14
T1 sequence (P42226 1-847): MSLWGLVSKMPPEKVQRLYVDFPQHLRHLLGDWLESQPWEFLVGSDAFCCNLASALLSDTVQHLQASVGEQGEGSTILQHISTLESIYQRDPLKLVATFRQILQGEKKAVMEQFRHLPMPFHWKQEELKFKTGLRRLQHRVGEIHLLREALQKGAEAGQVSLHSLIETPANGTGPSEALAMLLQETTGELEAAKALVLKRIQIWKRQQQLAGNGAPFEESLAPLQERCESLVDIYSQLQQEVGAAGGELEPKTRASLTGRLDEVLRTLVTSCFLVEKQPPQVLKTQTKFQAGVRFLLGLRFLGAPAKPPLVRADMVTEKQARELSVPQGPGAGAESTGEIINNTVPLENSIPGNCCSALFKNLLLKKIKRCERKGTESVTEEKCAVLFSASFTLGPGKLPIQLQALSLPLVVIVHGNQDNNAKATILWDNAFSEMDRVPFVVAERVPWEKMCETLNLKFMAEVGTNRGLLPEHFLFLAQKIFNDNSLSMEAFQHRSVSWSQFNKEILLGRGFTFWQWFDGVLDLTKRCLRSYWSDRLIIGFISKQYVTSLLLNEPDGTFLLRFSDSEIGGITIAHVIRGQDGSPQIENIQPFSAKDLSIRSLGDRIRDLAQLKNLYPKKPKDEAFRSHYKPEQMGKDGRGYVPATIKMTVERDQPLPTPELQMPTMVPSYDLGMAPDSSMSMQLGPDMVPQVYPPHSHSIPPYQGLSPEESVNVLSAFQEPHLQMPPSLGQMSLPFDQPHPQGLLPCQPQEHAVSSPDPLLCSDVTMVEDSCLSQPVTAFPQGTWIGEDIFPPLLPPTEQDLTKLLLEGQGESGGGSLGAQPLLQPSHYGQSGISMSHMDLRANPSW
Outline: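 Luminescence from HiBiT-STAT6 complementing stably expressed LgBiT in HeLa clone 4.14 reports remaining STAT6 protein. Cells (5000/well) exposed to compound for 4-24 h at 37° C; read 0.5 h after Nano-Glo addition. 100% degradation window set with 50 μM terfenadine; percent degradation plotted against concentration.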

[1] = system: Eotaxin-3 release in human whole blood stimulated with IL-4; experiment: Human Whole Blood Eotaxin-3 Assay (IL-4 stimulated eotaxin-3 release); assay type: cell-based; conditions: IL-4 stimulation, 48 h, values given for compounds with >80% Emax, geometric mean
Outline: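 Eotaxin-3 (CCL26) release measured by MSD kit in plasma supernatant after 48 h IL-4 stimulation ([…]) of human whole blood. Compounds added in triplicate 4-fold dilutions 2 h before stimulation; 0.5% DMSO final, 37° C, 5% CO2.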

| SMILES | DC50 (STAT6) [nM] | EC50 [1] [nM] |
| --- | --- | --- |
| CNc1cc(=O)n(-c2ccnc3c2cc([C@H](C)N2CC=C(c4c(C)cc(C(=O)N5CCC(CN6CCN(c7ccc8c(c7)n(C)c(=O)n8C7CCC(=O)NC7=O)CC6)CC5)cc4F)CC2)n3C)cc1F (stereo partly drawn) [Example 3u298, 3-(5-(4-((1-(3-fluoro-4-(1-((S)-1-(4-(5-fluoro-4-(methylamino)-2-oxopyridin-1 (2H)-yl)-1-methyl-1H-pyrrolo[2,3-b]pyridin-2-yl)ethyl)-1,2,3,6-tetrahydropyridin-4-yl)-5-methylbenzoyl)-piperidin-4-yl)methyl)piperazin-1-yl)-3-methyl-2-oxo-2,3-dihydro-1H-benzo[d]imidazol-1-yl)-piperidine-2,6-dione] | 1.8 | 2.6 |
| CNc1cc(=O)n(-c2ccnc3c2cc([C@H](C)N2CC=C(c4c(C)cc(C(=O)N5CCC(CN6CCN(c7ccc8c(c7)C(C)(C)C(=O)N8C7CCC(=O)NC7=O)CC6)CC5)cc4F)CC2)n3C)cc1F (stereo partly drawn) [Example 3u303, 3-(5-(4-((1-(3-fluoro-4-(1-((S)-1-(4-(5-fluoro-4-(methylamino)-2-oxopyridin-1 (2H)-yl)-1-methyl-1H-pyrrolo[2,3-b]pyridin-2-yl)ethyl)-1,2,3,6-tetrahydropyridin-4-yl)-5-methylbenzoyl)piperidin-4-yl)methyl)piperazin-1-yl)-3,3-dimethyl-2-oxoindolin-1-yl)piperidine-2,6-dione] | 21.7 | 37.1 |
| Cc1cc(C(=O)N2CCC(CN3CCN(Cc4cc5c(cc4F)n(C4CCC(=O)NC4=O)c(=O)n5C4CC4)CC3)CC2)cc(F)c1C1=CCN([C@@H](C)c2cc3c(-n4ccc5c(c4=O)CCN5)ccnc3n2C)CC1 (stereo partly drawn) [Example 3u146, 3-(3-cyclopropyl-6-fluoro-5-((4-((1-(3-fluoro-5-methyl-4-(1-((S)-1-(1-methyl-4-(4-oxo-1,2,3,4-tetrahydro-5H-pyrrolo[3,2-c]pyridin-5-yl)-1H-pyrrolo[2,3-b]pyridin-2-yl)ethyl)-1,2,3,6-tetrahydropyridin-4-yl)benzoyl)piperidin-4-yl)methyl)piperazin-1-yl)methyl)-2-oxo-2,3-dihydro-1H-benzo[d]imidazol-1-yl)piperidine-2,6-dione] | 1.7 | 1.4 |
| CNc1ccn(-c2ccnc3c2cc([C@H](C)N2CCC(c4c(C)cc(C(=O)N5CCC(CN6CCN(Cc7ccc8c(c7)n(C7CC7)c(=O)n8C7CCC(=O)NC7=O)C[C@@H]6C)CC5)cc4F)CC2)n3C)c(=O)c1 (stereo partly drawn) [Example 3u197, 3-(3-cyclopropyl-5-(((S)-4-((1-(3-fluoro-5-methyl-4-(1-((S)-1-(1-methyl-4-(4-(methyl-amino)-2-oxopyridin-1 (2H)-yl)-1H-pyrrolo[2,3-b]pyridin-2-yl)ethyl)piperidin-4-yl)benzoyl)piperidin-4-yl)methyl)-3-methylpiperazin-1-yl)methyl)-2-oxo-2,3-dihydro-1H-benzo[d]imidazol-1-yl)piperidine-2,6-dione] | 1.2 | 2.7 |
| CNc1ccn(-c2ccnc3c2cc(CN2CC=C(c4c(C)cc(C(=O)N(C)c5ccc(C6CCN(Cc7ccc8c(c7)C(C)(C)C(=O)N8C7CCC(=O)NC7=O)CC6)cc5)cc4F)CC2)n3C)c(=O)c1 (stereo not shown) [Example 3u228, N-(4-(1-((1-(2,6-dioxopiperidin-3-yl)-3,3-dimethyl-2-oxoindolin-5-yl)methyl)-piperidin-4-yl)phenyl)-3-fluoro-N,5-dimethyl-4-(1-((1-methyl-4-(4-(methylamino)-2-oxopyridin-1 (2H)-yl)-1H-pyrrolo[2,3-b]pyridin-2-yl)methyl)-1,2,3,6-tetrahydropyridin-4-yl)benzamide] | 0.2 | 1.2 |
| CNc1cc(=O)n(-c2ccnc3c2cc([C@H](C)N2CC=C(c4c(C)cc(C(=O)N5CCC(CN6CCN(c7ccc8c(c7)C(C)(C)C(=O)N8[C@@H]7CCC(=O)NC7=O)CC6)CC5)cc4F)CC2)n3C)cc1F (single isomer, unassigned) [Example 3u286] | 12.5 | 25.2 |
| CNc1ccn(-c2ccnc3c2cc([C@H](C)N2CC=C(c4c(F)cc(C(=O)N5CCC(CN6CCN(Cc7ccc8c(c7)C(C)(C)C(=O)N8[C@H]7CCC(=O)NC7=O)C[C@@H]6C)CC5)cc4F)CC2)n3C)c(=O)c1 (single isomer, unassigned) [Example 3u202] | 1.9 | 2.6 |
| CNc1cc(=O)n(-c2ccnc3c2cc([C@H](C)N2CC=C(c4c(C)cc(C(=O)N5CCC(CN6CCN(Cc7ccc8c(c7)C7(CCC7)C(=O)N8C7CCC(=O)NC7=O)C[C@@H]6C)CC5)cc4F)CC2)n3C)cc1F (stereo partly drawn) [Example 3u309, 3-(5′-(((S)-4-((1-(3-fluoro-4-(1-((S)-1-(4-(5-fluoro-4-(methylamino)-2-oxopyridin-1 (2H)-yl)-1-methyl-1H-pyrrolo[2,3-b]pyridin-2-yl)ethyl)-1,2,3,6-tetrahydropyridin-4-yl)-5-methylbenzoyl)piperidin-4-yl)methyl)-3-methylpiperazin-1-yl)methyl)-2′-oxospiro[cyclobutane-1,3′-indolin]-1′-yl)piperidine-2,6-dione] | 2.2 | 4.8 |
| CNc1cc(=O)n(-c2ccnc3c2cc([C@H](C)N2CC=C(c4c(C)cc(C(=O)N5CCC(CN6CCN(Cc7ccc8c(c7)C(C)(C)C(=O)N8[C@H]7CCC(=O)NC7=O)C[C@@H]6C)CC5)cc4F)CC2)n3C)cc1F (single isomer, unassigned) [Example 3u173] | 3.1 | 7.8 |
| CNc1cc(=O)n(-c2ccnc3c2cc([C@H](C)N2CC=C(c4c(F)cc(C(=O)N5CCC(CN6CCN(Cc7ccc8c(c7)n(C7CC7)c(=O)n8C7CCC(=O)NC7=O)C[C@@H]6C)CC5)cc4F)CC2)n3C)cc1F (stereo partly drawn) [Example 3u128, 3-(3-cyclopropyl-5-(((S)-4-((1-(3,5-difluoro-4-(1-((S)-1-(4-(5-fluoro-4-(methylamino)-2-oxopyridin-1 (2H)-yl)-1-methyl-1H-pyrrolo[2,3-b]pyridin-2-yl)ethyl)-1,2,3,6-tetrahydropyridin-4-yl)benzoyl)piperidin-4-yl)methyl)-3-methylpiperazin-1-yl)methyl)-2-oxo-2,3-dihydro-1H-benzo[d]imidazol-1-yl)piperidine-2,6-dione] | 1.1 | 1.6 |
| CNc1ccn(-c2ccnc3c2cc([C@H](C)N2CC=C(c4c(C)cc(C(=O)N5CCC(CN6CCN(Cc7cc8c(cc7F)n([C@@H]7CCC(=O)NC7=O)c(=O)n8C)C[C@@H]6C)CC5)cc4F)CC2)n3C)c(=O)c1 (single isomer, unassigned) [Example 3u209] | 7.3 | 0.7 |
| CN(C(=O)c1cc(F)c(C2CCN(Cc3cc4c(-n5ccc6c(c5=O)CCN6)ccnc4n3C)CC2)c(F)c1)c1ccc(C2CCN(Cc3ccc4c(c3)n(C)c(=O)n4C3CCC(=O)NC3=O)CC2)cc1 (stereo not shown) [Example 3u251, N-(4-(1-((1-(2,6-dioxopiperidin-3-yl)-3-methyl-2-oxo-2,3-dihydro-1H-benzo[d]-imidazol-5-yl)methyl)piperidin-4-yl)phenyl)-3,5-difluoro-N-methyl-4-(1-((1-methyl-4-(4-oxo-1,2,3,4-tetrahydro-5H-pyrrolo[3,2-c]pyridin-5-yl)-1H-pyrrolo[2,3-b]pyridin-2-yl)methyl)piperidin-4-yl)-benzamide] | 0.2 | 0.9 |
| CNc1cc(=O)n(-c2ccnc3c2cc([C@H](C)N2CCC(c4ccc(C(=O)N5CCC(CN6CCN(Cc7ccc8c(c7)C7(CC7)C(=O)N8[C@@H]7CCC(=O)NC7=O)C[C@@H]6C)CC5)cc4)CC2)n3C)cc1F (single isomer, unassigned) [Example 3u38] | 1.3 | 1.5 |
| CNc1cc(=O)n(-c2ccnc3c2cc(CN2CCC(c4c(F)cc(C(=O)N5CCC(CN6CCN(Cc7ccc8c(c7)n(C)c(=O)n8C7CCC(=O)NC7=O)CC6)CC5)cc4F)CC2)n3C)cc1F (stereo not shown) [Example 3u26, 3-(5-((4-((1-(3,5-difluoro-4-(1-((4-(5-fluoro-4-(methylamino)-2-oxopyridin-1 (2H)-yl)-1-methyl-1H-pyrrolo[2,3-b]pyridin-2-yl)methyl)piperidin-4-yl)benzoyl)piperidin-4-yl)methyl)piperazin-1-yl)methyl)-3-methyl-2-oxo-2,3-dihydro-1H-benzo[d]imidazol-1-yl)piperidine-2,6-dione] | 2.9 | 3.4 |
